Results on 32 compounds are retold here after US20170253607A1, “LONG-ACTING HIV PROTEASE INHIBITOR” (Shionogi & Co., Ltd., priority 2014, published 2017).

By pIC50 is commonly meant the negative decadic logarithm of the IC50, by convention in mol/L. Higher therefore signals a small IC50.

SMILES strings stand for the structures. pIC50: −log10 of the molar value.

The test addresses HIV-1 PR (Human immunodeficiency virus type 1 group M subtype B, UniProt P04585). As to the kind of experiment: HIV-protease inhibitory activity assay (FRET peptide substrate). Type of test: biochemical. The note with it: Test Example 1. In a few lines: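 Inhibition of HIV-1 protease was measured as loss of fluorescence dequenching of a HiLyte Fluor 488/QXL 520 peptide at 2 μmol/L, pH 4.8, room temperature, 60 minute reaction. IC50 was derived by nonlinear four-parameter fitting.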
Consider `CC(C)CN(CC(O)C(Cc1ccc(CCc2sc3c(c2C(=O)O)CC(C)(C)CC3)cc1)NC(=O)OC1COC2OCCC12)S(=O)(=O)c1ccc2ncsc2c1` (centres unmarked) [Compound I-831], for which the pIC50 is 8.83.
As to `COc1ccc(S(=O)(=O)N(CC(C)C)CC(O)C(Cc2ccc(OCc3ccccc3-c3sc4c(c3C(=O)O)CCC(=O)C4)cc2)NC(=O)OC2COC3OCCC23)cc1` (centres unmarked) [Compound I-833], the negative-log IC50 (pIC50) is 8.81.
`COc1ccc(S(=O)(=O)N(CC(C)C)CC(O)C(Cc2ccc(OCc3ccccc3-c3oc4c(c3C(=O)O)CCCC4)cc2)NC(=O)OC2COC3OCCC23)cc1` (centres unmarked) [Compound I-834] showed a negative-log IC50 (pIC50) of 8.94.
With `COc1ccc(S(=O)(=O)N(CC(C)C)CC(O)C(Cc2ccc(OCc3ccccc3-n3nc(C(=O)O)c4c3CCC(C)(C)C4)cc2)NC(=O)OC2COC3OCCC23)cc1` (centres unmarked) [Compound I-837] the figure was 9.09; with `COc1ccc(S(=O)(=O)N(CC2CCC(=O)N2)CC(O)C(Cc2ccc(OCc3ccccc3-c3sc4c(c3C(=O)O)CC(C)(C)CC4)cc2)NC(=O)OC2COC3OCCC23)cc1` (centres unmarked) [Compound I-838], 9.12; with `CC(C)CN(CC(O)C(Cc1ccc(OCc2ccc(-c3ccc(F)cc3F)nc2C(=O)O)cc1)NC(=O)OC1COC2OCCC12)S(=O)(=O)c1ccc2ncsc2c1` (centres unmarked) [Compound I-840], 9.15.
With `CC(C)CN(CC(O)C(Cc1ccc(OCc2nc(Oc3ccccc3)sc2C(=O)O)cc1)NC(=O)OC1COC2OCCC12)S(=O)(=O)c1ccc2ncsc2c1` (centres unmarked) [Compound I-842] the figure was 9.16; with `COc1ccc(S(=O)(=O)N(CC(C)C)CC(O)C(Cc2ccc(OCc3ccccc3-c3sc(Oc4ccccc4)nc3C(=O)O)cc2)NC(=O)OC2COC3OCCC23)cc1` (centres unmarked) [Compound I-843], 8.88; with `COc1ccc(S(=O)(=O)N(CC(C)C)CC(O)C(Cc2ccc(OCc3ccccc3-c3sc(N4CCC(C)(C)CC4)nc3C(=O)O)cc2)NC(=O)OC2COC3OCCC23)cc1` (centres unmarked) [Compound I-844], 9.00.
For `COc1ccc(S(=O)(=O)N(CC(C)C)CC(O)C(Cc2ccc(OCc3ccccc3-c3sc(N4CCC(C)(C)CC4)nc3C(=O)O)cc2)NC(=O)OC2COC3OCCC23)cc1` (centres unmarked) [Compound I-845], the pIC50 was 9.07.
The figure for `COc1ccc(S(=O)(=O)N(CC(C)C)CC(O)C(Cc2ccc(OCc3ccccc3-c3sc(N4CCCC(C)(C)C4)nc3C(=O)O)cc2)NC(=O)OC2COC3OCCC23)cc1` (centres unmarked) [Compound I-846] is 8.92; for `COc1ccc(S(=O)(=O)N(CC(C)C)CC(O)C(Cc2ccc(OCc3ccccc3-c3sc(-c4ccccc4)cc3C(=O)O)cc2)NC(=O)OC2COC3OCCC23)cc1` (centres unmarked) [Compound I-848] it is 9.05.
`COc1ccc(S(=O)(=O)N(CC(C)C)CC(O)C(Cc2ccc(OCc3ccccc3-c3sc(Cl)c(-c4ccccc4)c3C(=O)O)cc2)NC(=O)OC2COC3OCCC23)cc1` (centres unmarked) [Compound I-849] gave a negative logarithm of the IC50 (pIC50) of 9.11.
The figure for `COc1ccc(S(=O)(=O)N(CC(C)C)CC(O)C(Cc2ccc(OCc3ccccc3-c3sc(Cl)c(CC(C)C)c3C(=O)O)cc2)NC(=O)OC2COC3OCCC23)cc1` (centres unmarked) [Compound I-850] is 8.99; for `COc1ccc(S(=O)(=O)N(CC(C)C)CC(O)C(Cc2ccc(NCc3ccccc3-c3sc4c(c3C(=O)O)CC(C)(C)CC4)cc2)NC(=O)OC2COC3OCC(OC)C23)cc1` (centres unmarked) [Compound I-853] it is 8.70.
The figure for `CC(C)CN(CC(O)C(Cc1ccc(NCc2ccccc2C(=O)Nc2sc3c(c2C(=O)O)CC(C)(C)CC3)cc1)NC(=O)OC1COC2OCCC12)S(=O)(=O)c1ccc2c(c1)OCO2` (centres unmarked) [Compound I-854] is 8.50.
Regarding `CC(C)CN(CC(O)C(Cc1ccc(NCc2ccccc2C(=O)Nc2sc3c(c2C(=O)O)CC(C)(C)CC3)cc1)NC(=O)OC1COC2OCCC12)S(=O)(=O)c1ccc2ncsc2c1` (centres unmarked) [Compound I-855], the pIC50 is 8.58.
The figure for `COc1ccc(S(=O)(=O)N(CC(C)C)CC(O)C(Cc2ccc(N3CCC(C(=O)N(C)c4sc5c(c4C(=O)O)CC(C)(C)CC5)C3)cc2)NC(=O)OC2COC3OCCC23)cc1` (centres unmarked) [Compound I-863] is 8.59; for `COc1ccc(S(=O)(=O)N(CC(C)C)CC(O)C(Cc2ccc(N(C)CCOc3ccccc3-c3sc4c(c3C(=O)O)CC(C)(C)CC4)cc2)NC(=O)OC2COC3OCCC23)cc1` (centres unmarked) [Compound I-864] it is 8.65.
For the compound `COc1ccc(S(=O)(=O)N(CC(C)C)CC(O)C(Cc2ccc(N3CCC(C(=O)Nc4sc5c(c4C(=O)O)CC(C)(C)CC5)C3)cc2)NC(=O)OC2COC3OCCC23)cc1` (centres unmarked) [Compound I-865], the negative logarithm of the IC50 (pIC50) was 8.66.
The figure for `COc1ccc(S(=O)(=O)N(CC(C)C)CC(O)C(Cc2ccc(NCc3cc(C(F)(F)F)ccc3-c3sc4c(c3C(=O)O)CC(C)(C)CC4)cc2)NC(=O)OC2COC3OCCC23)cc1` (centres unmarked) [Compound I-868] is 8.37.
The figure for `COc1ccc(S(=O)(=O)N(CC2CCCC2)CC(O)C(Cc2ccc(NCc3cc(C(F)(F)F)ccc3-c3sc4c(c3C(=O)O)CC(C)(C)CC4)cc2)NC(=O)OC2COC3OCCC23)cc1` (centres unmarked) [Compound I-870] is 8.03.
The figure for `CC(C)CN(CC(O)C(Cc1ccc(NCc2cc(C(F)(F)F)ccc2-c2sc3c(c2C(=O)O)CC(C)(C)CC3)cc1)NC(=O)OC1COC2OCCC12)S(=O)(=O)c1ccc2ncsc2c1` (centres unmarked) [Compound I-871] is 8.31; for `CC1(C)CCc2sc(-c3ccc(C(F)(F)F)cc3CNc3ccc(CC(NC(=O)OC4COC5OCCC45)C(O)CN(CC4CCC4)S(=O)(=O)c4ccc5ncsc5c4)cc3)c(C(=O)O)c2C1` (centres unmarked) [Compound I-872] it is 8.30; for `CC1(C)CCc2sc(-c3ccc(C(F)(F)F)cc3CNc3ccc(CC(NC(=O)OC4COC5OCCC45)C(O)CN(CC4CCCC4)S(=O)(=O)c4ccc5ncsc5c4)cc3)c(C(=O)O)c2C1` (centres unmarked) [Compound I-873] it is 8.07.
On to `CC(C)CN(CC(O)C(Cc1ccc(NCc2cc(C(F)(F)F)ccc2-c2sc3c(c2C(=O)O)CC(C)(C)CC3)cc1)NC(=O)OC1COC2OCCC12)S(=O)(=O)c1ccc2c(c1)OCO2` (centres unmarked) [Compound I-874], for which the negative logarithm of the IC50 (pIC50) was 8.29.
The figure for `CC1(C)CCc2sc(-c3ccc(C(F)(F)F)cc3CNc3ccc(CC(NC(=O)OC4COC5OCCC45)C(O)CN(CC4CCC4)S(=O)(=O)c4ccc5c(c4)OCO5)cc3)c(C(=O)O)c2C1` (centres unmarked) [Compound I-875] is 8.17; for `CC1(C)CCc2sc(-c3ccc(C(F)(F)F)cc3CNc3ccc(CC(NC(=O)OC4COC5OCCC45)C(O)CN(CC4CCCC4)S(=O)(=O)c4ccc5c(c4)OCO5)cc3)c(C(=O)O)c2C1` (centres unmarked) [Compound I-876] it is 8.15; for `COc1ccc(S(=O)(=O)N(CC(C)C)CC(O)C(Cc2ccc(NCC3CCCC3c3sc4c(c3C(=O)O)CC(C)(C)CC4)cc2)NC(=O)OC2COC3OCCC23)cc1` (centres unmarked) [Compound I-878] it is 8.53.
Regarding `CC(C)CN(CC(O)C(Cc1ccc(N(C)Cc2ccccc2C(=O)Nc2sc3c(c2C(=O)O)CC(C)(C)CC3)cc1)NC(=O)OC1COC2OCCC12)S(=O)(=O)c1ccc2c(c1)OCO2` (centres unmarked) [Compound I-879], the negative-log IC50 (pIC50) was 8.42.
The figure for `COc1ccc(S(=O)(=O)N(CC(C)C)CC(O)C(Cc2ccc(NCC3=C(c4sc5c(c4C(=O)O)CC(C)(C)CC5)CCC(F)(F)C3)cc2)NC(=O)OC2COC3OCCC23)cc1` (centres unmarked) [Compound I-880] is 8.33.
The figure for `COc1ccc(S(=O)(=O)N(CC(C)C)CC(O)C(Cc2ccc(N(C)CC3=C(c4sc5c(c4C(=O)O)CC(C)(C)CC5)CCC(F)(F)C3)cc2)NC(=O)OC2COC3OCCC23)cc1` (centres unmarked) [Compound I-881] is 8.23.
